Test results from patent publication US20220009918A1, “Chemical Compounds” (GlaxoSmithKline Intellectual Property Development Limited, priority 2018, published 2022).
“Also recorded” adds a separate entry of the source.

Assays:
male C57Bl/6N mice = assay: In vivo functional response to muscle injury (eccentric contraction-induced); design: species or system mouse
Description: FIG. 1. Effect of different doses of an H-PGDS inhibitor, Example 16, on limb force following eccentric (lengthening) contraction-induced muscle injury in normal C57Bl6/N mice. Doses were administered 10 minutes prior to damage and QD thereafter.
In Vivo Assays for Functional Response to Muscle Injury
Under anesthesia, the right hind limb of a mouse is restrained at the knee and the foot attached to a motorized footplate/force transducer. Needle electrodes are inserted into the upper limb, either side of the sciatic nerve and a current sufficient to elicit a maximal muscle contraction is applied. Muscle tension is produced by moving the footplate to lengthen the plantarflexor muscles while the limb is under maximal stimulation. This is repeated 60 times to fatigue the muscles of the lower limb. Anesthesia, limb immobilization and limb stimulation are then repeated at regular intervals to measure maximal isometric force in the recovering limb. 7 to 9 animals are tested for each test condition.

[1] = tested on: prostaglandin D2 generation following 48/80-induced mast cell degranulation; assay: In vivo mast cell activation: compound 48/80 challenge, peritoneal lavage PGD2 by LC/MS/MS; design: species or system mouse; settings: normal C57Bl6/N mice, oral 0.01-1.0 mg/kg ~1 hour prior to 48/80 (i.p.), lavage 7 minutes afterwards
Description: In Vivo Mast Cell Activation
Mice were randomized by body weight into 8 groups (n=8): Vehicle (0.5% HPML with 0.1% Tween80)+phosphate buffered saline (PBS), vehicle+compound 48/80 (0.75 mg/mL) and compound 48/80+Example 16 at various doses ranging from 0.01 mg/kg to 1.0 mg/kg.
C57BL mice were dosed orally with vehicle, or Example 16 at 0.01, 0.03, 0.1, 0.3, & 1.0 mg/kg. One hour later, blood samples were withdrawn via tail snip for measurement of drug levels, and mice were then terminally anesthetized with 2% isoflurane and given an intraperitoneal injection of 0.2 mL PBS or compound 48/80 solution (0.75 mg/mL, Sigma), followed by gentle massage of the abdomen. […]
Samples were thawed at room temperature and vortex-mixed. […] The plate was vortex-mixed for 30 seconds at 1000 rpm and analyzed by LC/MS/MS.
The analytical system consisted of a CTC HTS PAL autoinjector (Leap, Carrboro, N.C.), an Agilent 1290 Infinity binary pump and thermostated column compartment (Agilent Technologies, Santa Clara, Calif.) and an AB Sciex QTRAP 5500 mass spectrometer (AB Sciex, Framingham, Mass.). […] The analytes were detected by multiple reaction monitoring (MRM) in negative mode using Turbolon spray with the transitions of m/z 351/271 amu for PGD2/PGE2 and m/z 360/280 amu for PGD2-d9/PGE2-d9. Data were acquired, analyzed and quantified using Analyst software version 1.6.2 (AB Sciex, Framingham, Mass.). […]

SMILES: CC1(C)C[C@H](NC(=O)c2cnc(-c3cc(F)cc(Cl)c3)s2)C(=O)N1 (single isomer, unassigned) [Example 16]
- protection from strength loss (maximal isometric torque) 24 hours after injury (male C57Bl/6N mice; male C57Bl/6N mice, PO immediately prior to eccentric contraction challenge): dose-dependent protection from strength loss
- restoration of muscle function after 9 days (male C57Bl/6N mice; male C57Bl/6N mice, repeat dosing (QD) PO, all doses greater than 0.1 mg/kg): full restoration of muscle function
- limb force / functional repair following eccentric contraction-induced limb muscle injury (FIG. 1) (male C57Bl/6N mice; normal C57Bl6/N mice, doses 10 minutes prior to damage and QD thereafter): Accelerates Functional Repair
- PGD2 generation in peritoneal lavage fluid following compound 48/80 challenge (FIG. 2) [1]: prevents 48/80-induced PGD2 generation; also recorded: Dose-Dependent Reduction in Peritoneal Lavage Fluid PGD2
